Source: patent US8609658B2, “N,N-dialkylalkylenyl esters, compositions thereof, and methods for use thereof” (Allergan, Inc., priority 2011, dated 2013)

Experiment: Aqueous stability in formulation vehicle (% substrate remaining)
Format: physicochemical
Settings: 0.0005% w/w (5 ppm) compound in aqueous formulation vehicle, pH 6

SMILES	% Substrate Remaining (7 days/25° C.)	% Substrate Remaining (7 days/40° C.)	% Substrate Remaining (28 days/25° C.)
CCN(CC)CCCC(C)OC(=O)COc1cccc(NC(=O)c2cc(-c3cccc(F)c3)ccc2F)c1 (stereo not drawn)	101.2%	92%	94.4%
CC[N+](C)(CC)CCCOC(=O)COc1cccc(NC(=O)c2cc(-c3cccc(F)c3)ccc2F)c1	95.5%	49.2%	82.6%
CN(C)c1ccc(OC(=O)COc2cccc(NC(=O)c3cc(-c4cccc(F)c4)ccc3F)c2)cc1	92%	78.8%	78%
O=C(COc1cccc(NC(=O)c2cc(-c3cccc(F)c3)ccc2F)c1)Oc1ccc(CN2CCOCC2)cc1	61.5%	18%	12%
